Assay results from publication PMC3919815, “Anti-Tumor Effects of Novel 5-O-Acyl Plumbagins Based on the Inhibition of Mammalian DNA Replicative Polymerase Activity” (PLoS ONE, 2014).
Read-outs that look alike come from different tables or passages of the source.

Experiments:
Format in all cases: biochemical
[1] = test system: mammalian pols; assay: DNA polymerase activity inhibition, summary over the panel
Description: (§1) Pol α was purified from calf thymus by immunoaffinity column chromatography as described by Tamai et al.. Recombinant rat pol β was purified from Escherichia coli JMpβ5 as described by Date et al.. The human pol γ catalytic gene was cloned into pFastBac. Histidine-tagged enzyme was expressed using the BACTO-BAC HT Baculovirus Expression System according to the manufacturer's instructions (Life Technologies, Frederick, MD, USA) and purified using ProBound resin (Invitrogen Japan, Tokyo Japan). Human pols δ and ε were purified by nuclear fractionation of human peripheral blood cancer cells (Molt-4) using the second subunit of pol δ and ε-conjugated affinity column chromatography, respectively. A truncated form of human pol η (residues 1–511) tagged with His6 at its C-terminal was expressed in E. coli cells and purified as described by Kusumoto et al.. A recombinant mouse pol ι tagged with His6 at its C-terminal was expressed and purified by Ni–NTA column chromatography. A truncated form of pol κ (residues 1–560) with 6× His-tags attached at the C-terminus was overexpressed in E. coli and purified as described by Ohashi et al.. Recombinant human His-pol λ was overexpressed and purified according to a method described by Shimazaki et al.. Recombinant human His-pol μ was overexpressed in E. coli BL21 and purified using Glutathione Sepharose 4B (GE Healthcare Bio-Science Corp., Piscataway, NJ, USA) column chromatography according to the method for pol λ preparation by Shimazaki et al.. Pol α from a higher plant, cauliflower, was purified from the inflorescence structure according to the methods outlined by Sakaguchi et al.. Recombinant rice (Oryza sativa L. cv. Nipponbare) pol λ tagged with His6 at the C-terminus was expressed in E. coli and purified as described by Uchiyama et al.. Calf TdT, Taq pol, T4 pol, T7 RNA polymerase, and T4 polynucleotide kinase were purchased from Takara Bio Inc. (Kyoto, Japan). The Klenow fragment of pol I from E. coli was purchased from Worthington Biochemical Corp. (Freehold, NJ, USA). Bovine pancreas deoxyribonuclease I was obtained from Stratagene Cloning Systems (La Jolla, CA, USA).
(§2) The reaction mixtures for calf pol α, rat pol β, plant pol α, and prokaryotic pols have been described previously, [35]; those for pol γ as well as pols δ and ε were previously described by Umeda et al. and Ogawa et al., respectively. Those for pols η, ι, and κ were the same as for pol α, and those for pols λ and μ were the same as for pol β. For the pol reactions, poly(dA)/oligo(dT)18 (A/T, 2/1) and dTTP were used as the DNA template-primer substrate and nucleotide (dNTP; 2′-deoxynucleoside-5′-triphosphate) substrate, respectively. For the TdT reactions, oligo(dT)18 (3′-OH) and dTTP were used as the DNA primer substrate and nucleotide substrate, respectively.
(§3) The chemically synthesized 5-O-acyl plumbagins (2a–j) were dissolved in distilled dimethyl sulfoxide (DMSO) to various concentrations and sonicated for 30 s. Subsequently, 4 µL aliquots were mixed with 16 µL of each enzyme (0.05 units) in 50 mM Tris-HCl at pH 7.5, containing 1 mM dithiothreitol, 50% glycerol (by vol), and 0.1 mM ethylenediaminetetraacetic acid and held at 0°C for 10 min. These inhibitor-enzyme mixtures in 8 µL volumes were next added to 16 µL of enzyme standard reaction mixture and incubated at 37°C for 60 min, except for Taq pol, which was incubated at 74°C for 60 min. Activity without inhibitor was considered 100%, and the relative activity was determined for each inhibitor concentration. One unit of pol activity was defined as the amount of each enzyme that catalyzed the incorporation of 1 nmol dTTP into synthetic DNA template primers in 60 min, at 37°C, and under standard reaction conditions, [35].

[2] = molecular target: T1, Calf TdT (Bos taurus, UniProt P06526); assay: TdT activity inhibition; conditions: 0.05 units enzyme; mean ± SD (n = 3)
T1 construct: purchased Takara Bio Inc. (Kyoto, Japan)
Description: Pol α was purified from calf thymus by immunoaffinity column chromatography as described by Tamai et al.. Recombinant rat pol β was purified from Escherichia coli JMpβ5 as described by Date et al.. The human pol γ catalytic gene was cloned into pFastBac. Histidine-tagged enzyme was expressed using the BACTO-BAC HT Baculovirus Expression System according to the manufacturer's instructions (Life Technologies, Frederick, MD, USA) and purified using ProBound resin (Invitrogen Japan, Tokyo Japan). Human pols δ and ε were purified by nuclear fractionation of human peripheral blood cancer cells (Molt-4) using the second subunit of pol δ and ε-conjugated affinity column chromatography, respectively. A truncated form of human pol η (residues 1–511) tagged with His6 at its C-terminal was expressed in E. coli cells and purified as described by Kusumoto et al.. A recombinant mouse pol ι tagged with His6 at its C-terminal was expressed and purified by Ni–NTA column chromatography. […]
The chemically synthesized 5-O-acyl plumbagins (2a–j) were dissolved in distilled dimethyl sulfoxide (DMSO) to various concentrations and sonicated for 30 s. […] Activity without inhibitor was considered 100%, and the relative activity was determined for each inhibitor concentration. […]

[3] = molecular target: T2, Human pol κ (Homo sapiens, UniProt Q9UBT6); assay: DNA polymerase activity inhibition; conditions: 0.05 units enzyme; mean ± SD (n = 3)
T2 construct: A truncated form of pol κ (residues 1–560) with 6× His-tags attached at the C-terminus; 6× His (C); made in house; host or cells: E. coli
T2 sequence (Q9UBT6 1-560): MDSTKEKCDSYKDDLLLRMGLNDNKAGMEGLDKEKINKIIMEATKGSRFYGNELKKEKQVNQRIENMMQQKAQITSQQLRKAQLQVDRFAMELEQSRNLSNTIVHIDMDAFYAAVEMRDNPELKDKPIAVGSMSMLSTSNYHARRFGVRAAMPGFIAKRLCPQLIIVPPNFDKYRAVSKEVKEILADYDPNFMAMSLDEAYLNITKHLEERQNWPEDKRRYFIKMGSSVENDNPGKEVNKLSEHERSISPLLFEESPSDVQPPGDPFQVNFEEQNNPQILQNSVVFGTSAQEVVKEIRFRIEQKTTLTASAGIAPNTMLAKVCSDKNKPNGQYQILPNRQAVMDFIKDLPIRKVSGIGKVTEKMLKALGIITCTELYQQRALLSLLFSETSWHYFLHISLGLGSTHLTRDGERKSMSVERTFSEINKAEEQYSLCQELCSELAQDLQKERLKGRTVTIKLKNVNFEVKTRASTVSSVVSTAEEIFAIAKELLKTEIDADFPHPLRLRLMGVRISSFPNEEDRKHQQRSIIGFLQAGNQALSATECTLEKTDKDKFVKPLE
Description: as §1, §2, §3

[4] = molecular target: T3, Calf pol α (Bos taurus, UniProt A0AAA9TD94); assay: DNA polymerase activity inhibition; conditions: 0.05 units enzyme; mean ± SD (n = 3)
T3 construct: from tissue; host or cells: calf thymus
Description: as §1, §2, §3

[5] = molecular target: T4, Human pol δ (Homo sapiens, UniProt P28340); assay: DNA polymerase activity inhibition; conditions: 0.05 units enzyme; mean ± SD (n = 3)
T4 construct: purified by nuclear fractionation of human peripheral blood cancer cells (Molt-4); endogenous in cells; host or cells: Molt-4
Description: as §1, §2, §3

[6] = molecular target: T5, Human pol γ (Homo sapiens, UniProt P54098); assay: DNA polymerase activity inhibition
T5 construct: His tag; made in house
Description: as §1, §2, §3

[7] = molecular target: T6, Taq pol (Thermus aquaticus, UniProt P19821); assay: DNA polymerase activity inhibition
T6 construct: purchased Takara Bio Inc. (Kyoto, Japan)
Description: as §1, §2, §3

[8] = molecular target: Cauliflower pol α (Brassica oleracea var. botrytis, UniProt A0A0D3D890); assay: DNA polymerase activity inhibition
Description: as §1, §2, §3

T5 sequence (P54098 whole entry): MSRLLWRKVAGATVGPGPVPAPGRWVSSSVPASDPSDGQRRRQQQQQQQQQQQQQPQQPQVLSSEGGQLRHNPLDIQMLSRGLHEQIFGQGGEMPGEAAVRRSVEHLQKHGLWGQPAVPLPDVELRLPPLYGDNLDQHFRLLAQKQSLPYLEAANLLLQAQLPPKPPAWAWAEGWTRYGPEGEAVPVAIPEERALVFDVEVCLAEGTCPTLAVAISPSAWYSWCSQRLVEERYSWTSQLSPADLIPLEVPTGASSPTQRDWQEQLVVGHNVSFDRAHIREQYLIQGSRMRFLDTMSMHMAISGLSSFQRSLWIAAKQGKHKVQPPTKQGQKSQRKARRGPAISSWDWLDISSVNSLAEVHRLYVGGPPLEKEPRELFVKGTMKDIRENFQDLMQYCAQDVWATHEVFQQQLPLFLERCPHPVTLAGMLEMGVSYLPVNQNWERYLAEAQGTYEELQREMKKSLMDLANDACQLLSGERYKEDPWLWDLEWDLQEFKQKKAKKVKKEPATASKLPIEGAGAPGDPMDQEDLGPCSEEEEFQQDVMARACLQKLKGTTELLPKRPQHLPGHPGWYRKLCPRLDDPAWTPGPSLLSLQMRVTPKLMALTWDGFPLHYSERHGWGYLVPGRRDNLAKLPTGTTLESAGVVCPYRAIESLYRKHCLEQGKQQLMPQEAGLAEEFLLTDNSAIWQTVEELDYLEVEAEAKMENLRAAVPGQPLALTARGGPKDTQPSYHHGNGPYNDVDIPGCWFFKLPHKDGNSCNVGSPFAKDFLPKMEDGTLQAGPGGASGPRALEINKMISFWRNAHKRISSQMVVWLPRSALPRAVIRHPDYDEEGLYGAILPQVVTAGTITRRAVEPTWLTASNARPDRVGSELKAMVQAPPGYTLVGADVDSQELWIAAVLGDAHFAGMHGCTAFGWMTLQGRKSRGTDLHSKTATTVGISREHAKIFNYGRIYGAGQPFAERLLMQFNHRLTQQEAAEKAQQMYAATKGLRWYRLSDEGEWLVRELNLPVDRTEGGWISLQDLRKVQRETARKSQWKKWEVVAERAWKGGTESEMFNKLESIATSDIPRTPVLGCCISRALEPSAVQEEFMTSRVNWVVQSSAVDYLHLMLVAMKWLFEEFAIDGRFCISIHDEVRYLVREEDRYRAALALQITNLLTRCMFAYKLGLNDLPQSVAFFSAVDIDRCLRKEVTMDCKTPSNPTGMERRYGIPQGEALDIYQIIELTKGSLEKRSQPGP
T6 sequence (P19821 whole entry): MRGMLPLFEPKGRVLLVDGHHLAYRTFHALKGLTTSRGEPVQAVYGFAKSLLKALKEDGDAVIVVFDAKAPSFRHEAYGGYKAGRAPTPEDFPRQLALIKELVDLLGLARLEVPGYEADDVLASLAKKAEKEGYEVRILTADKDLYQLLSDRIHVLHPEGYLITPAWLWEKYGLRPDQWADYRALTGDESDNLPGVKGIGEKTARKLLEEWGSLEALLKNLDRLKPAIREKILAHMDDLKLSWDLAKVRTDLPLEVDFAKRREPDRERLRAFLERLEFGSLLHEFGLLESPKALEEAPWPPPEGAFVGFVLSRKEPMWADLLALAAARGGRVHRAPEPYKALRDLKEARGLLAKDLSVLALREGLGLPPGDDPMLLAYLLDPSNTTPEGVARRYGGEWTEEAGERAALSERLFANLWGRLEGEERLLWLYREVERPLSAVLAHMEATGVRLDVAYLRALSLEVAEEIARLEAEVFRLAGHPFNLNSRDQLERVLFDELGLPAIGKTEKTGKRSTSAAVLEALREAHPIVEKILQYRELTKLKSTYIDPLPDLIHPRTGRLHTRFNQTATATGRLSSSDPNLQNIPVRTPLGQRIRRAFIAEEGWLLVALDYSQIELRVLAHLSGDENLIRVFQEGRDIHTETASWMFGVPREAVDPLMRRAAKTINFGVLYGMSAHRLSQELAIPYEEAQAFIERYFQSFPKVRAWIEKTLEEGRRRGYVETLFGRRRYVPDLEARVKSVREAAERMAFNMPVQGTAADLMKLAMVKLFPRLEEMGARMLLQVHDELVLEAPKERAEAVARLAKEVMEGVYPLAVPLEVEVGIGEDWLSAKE
Chain of Cauliflower pol α (A0A0D3D890 entry or part of it): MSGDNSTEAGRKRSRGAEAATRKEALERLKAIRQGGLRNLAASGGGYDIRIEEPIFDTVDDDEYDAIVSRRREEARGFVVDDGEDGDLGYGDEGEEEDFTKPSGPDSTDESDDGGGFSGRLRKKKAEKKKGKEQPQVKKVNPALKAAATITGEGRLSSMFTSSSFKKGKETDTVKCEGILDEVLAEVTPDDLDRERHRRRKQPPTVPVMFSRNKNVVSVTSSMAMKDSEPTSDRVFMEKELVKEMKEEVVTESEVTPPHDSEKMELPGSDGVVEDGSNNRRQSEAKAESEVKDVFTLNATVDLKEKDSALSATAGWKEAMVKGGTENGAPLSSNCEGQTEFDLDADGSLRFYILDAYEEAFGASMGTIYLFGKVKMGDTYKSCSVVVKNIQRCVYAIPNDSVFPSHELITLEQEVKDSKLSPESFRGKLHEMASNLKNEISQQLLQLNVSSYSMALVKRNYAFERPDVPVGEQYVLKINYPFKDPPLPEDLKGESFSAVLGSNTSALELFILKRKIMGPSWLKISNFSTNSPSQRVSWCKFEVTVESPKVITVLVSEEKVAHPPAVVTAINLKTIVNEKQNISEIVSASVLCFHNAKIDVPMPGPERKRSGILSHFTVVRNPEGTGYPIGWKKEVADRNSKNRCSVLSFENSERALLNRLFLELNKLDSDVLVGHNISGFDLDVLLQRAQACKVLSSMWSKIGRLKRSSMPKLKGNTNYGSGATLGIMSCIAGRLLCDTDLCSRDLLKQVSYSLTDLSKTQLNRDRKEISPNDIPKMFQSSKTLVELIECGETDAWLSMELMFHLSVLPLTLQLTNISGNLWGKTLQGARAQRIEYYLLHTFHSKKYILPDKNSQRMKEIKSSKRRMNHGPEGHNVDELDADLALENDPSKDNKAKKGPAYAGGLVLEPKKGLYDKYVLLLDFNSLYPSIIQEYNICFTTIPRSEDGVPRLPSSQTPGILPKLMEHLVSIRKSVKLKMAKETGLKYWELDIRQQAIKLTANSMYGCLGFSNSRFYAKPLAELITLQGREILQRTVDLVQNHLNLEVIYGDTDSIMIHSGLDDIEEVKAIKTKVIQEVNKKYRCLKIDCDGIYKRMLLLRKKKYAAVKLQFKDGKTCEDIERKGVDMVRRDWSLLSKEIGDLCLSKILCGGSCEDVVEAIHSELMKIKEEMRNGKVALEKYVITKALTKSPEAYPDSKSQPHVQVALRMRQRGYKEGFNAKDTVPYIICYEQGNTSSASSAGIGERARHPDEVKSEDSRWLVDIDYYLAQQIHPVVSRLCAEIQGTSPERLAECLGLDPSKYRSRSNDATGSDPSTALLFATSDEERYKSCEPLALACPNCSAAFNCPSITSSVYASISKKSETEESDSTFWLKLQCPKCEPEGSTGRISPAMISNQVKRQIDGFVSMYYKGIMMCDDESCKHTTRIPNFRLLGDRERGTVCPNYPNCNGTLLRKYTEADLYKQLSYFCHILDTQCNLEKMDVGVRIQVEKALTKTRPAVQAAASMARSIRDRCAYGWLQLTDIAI
T3 sequence (A0AAA9TD94 1-1441): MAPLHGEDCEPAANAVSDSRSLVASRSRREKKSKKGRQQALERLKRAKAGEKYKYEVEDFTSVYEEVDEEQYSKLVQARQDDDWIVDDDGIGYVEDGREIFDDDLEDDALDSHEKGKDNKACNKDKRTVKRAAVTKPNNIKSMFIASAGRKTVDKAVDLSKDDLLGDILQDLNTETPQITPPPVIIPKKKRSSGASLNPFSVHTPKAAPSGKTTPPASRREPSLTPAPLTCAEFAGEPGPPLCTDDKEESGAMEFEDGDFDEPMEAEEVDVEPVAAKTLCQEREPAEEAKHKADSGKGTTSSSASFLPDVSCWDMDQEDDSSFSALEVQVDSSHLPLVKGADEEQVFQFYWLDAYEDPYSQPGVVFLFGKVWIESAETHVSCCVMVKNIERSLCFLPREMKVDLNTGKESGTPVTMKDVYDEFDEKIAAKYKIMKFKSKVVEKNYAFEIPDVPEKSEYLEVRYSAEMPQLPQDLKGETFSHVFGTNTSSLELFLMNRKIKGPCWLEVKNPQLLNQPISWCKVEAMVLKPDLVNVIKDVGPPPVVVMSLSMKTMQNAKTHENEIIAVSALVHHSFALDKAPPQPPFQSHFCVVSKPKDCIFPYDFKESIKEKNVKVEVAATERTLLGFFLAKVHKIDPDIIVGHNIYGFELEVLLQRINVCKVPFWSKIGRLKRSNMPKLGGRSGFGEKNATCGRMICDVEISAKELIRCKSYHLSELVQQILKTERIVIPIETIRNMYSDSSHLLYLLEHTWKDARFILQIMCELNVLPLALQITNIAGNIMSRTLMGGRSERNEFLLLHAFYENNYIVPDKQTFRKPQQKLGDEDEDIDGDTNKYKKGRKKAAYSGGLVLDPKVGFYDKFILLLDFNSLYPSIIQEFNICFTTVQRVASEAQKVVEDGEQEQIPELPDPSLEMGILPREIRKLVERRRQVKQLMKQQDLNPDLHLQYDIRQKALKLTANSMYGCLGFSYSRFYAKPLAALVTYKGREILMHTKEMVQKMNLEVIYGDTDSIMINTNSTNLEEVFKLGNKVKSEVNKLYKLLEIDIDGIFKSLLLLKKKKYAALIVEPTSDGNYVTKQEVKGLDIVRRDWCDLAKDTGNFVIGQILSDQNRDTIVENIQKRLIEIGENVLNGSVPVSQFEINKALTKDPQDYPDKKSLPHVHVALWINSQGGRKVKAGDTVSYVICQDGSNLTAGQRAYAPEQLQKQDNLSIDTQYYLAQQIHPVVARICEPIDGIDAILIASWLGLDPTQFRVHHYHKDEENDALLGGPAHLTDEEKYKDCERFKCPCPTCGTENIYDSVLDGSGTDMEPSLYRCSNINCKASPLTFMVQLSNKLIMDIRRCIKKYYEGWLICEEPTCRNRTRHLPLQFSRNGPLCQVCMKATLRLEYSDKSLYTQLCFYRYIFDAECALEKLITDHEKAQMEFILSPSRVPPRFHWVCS

CCCCCCCC/C=C\CCCCCCCC(=O)Oc1cccc2c1C(=O)C=C(C)C2=O [2f, 5-O-oleoyl-2-methyl-1,4-naphthoquinone]
inhibitory effect on A and B families of pols, fold stronger than on X and Y families [1]: 1.5- to 2 fold | IC50 ([1]; B family of pols, read-out: 50% inhibition dose): 4.8 to 5.3 µM | IC50 ([1]; X family of pols, read-out: 50% inhibition dose): 9.2 to 10.6 µM | IC50 ([1]; Y family of pols, read-out: 50% inhibition dose): 7.6 to 8.2 µM | IC50 ([1]; all of the mammalian pols (11 species), read-out: IC50 values): 4.5 to 10.6 µM | influence of excess poly(rC) and BSA on pol inhibition ([1]; data not shown): little or no influence | pol inhibitory activity, fold more potent than aphidicolin ([1]; pols α, δ and ε, versus aphidicolin IC50 of ref 45): > 2 fold | IC50 [2]: 10.6 ± 0.5 µM | IC50 [3]: 7.6 ± 0.41 µM | IC50 [4]: 4.8 ± 0.38 µM | IC50 [5]: 5.3 ± 0.41 µM | inhibition of pol γ relative activity (in words) ([6]; 10 µM compound, Fig. 4): strongest inhibition | IC50 ([6]; 0.05 units enzyme, mean ± SD (n = 3)): 4.5 ± 0.4 µM | effect on enzyme activity (in words) [7]: had no effect | IC50 ([7]; 0.05 units enzyme, 74°C): > 100 µM | effect on enzyme activity (in words) [8]: had no effect
